Experimental data: patent US5593970A, “Heterocyclic anthracycline analogs” (priority 1994, dated 1997)
Where two headings read alike, the source gives them in different places.

Assays:
Assay in all cases: Microculture tetrazolium assay
Assay type in all cases: cell-based
SKVLB = details: for VLB/OV3: IC50 ratio SKVLB/SKOV3; for IC50: SKVLB
T47D = details: Homo sapiens
SKOV3 = details: Homo sapiens, SK-OV-3, SKOV3
HT29 = details: Homo sapiens, HT-29, HT29
LOX = details: read-out: IC50

Structure (SMILES) | VLB/OV3 (SKVLB) | IC50 (SKVLB; read-out: IC50) [µM] | IC50 (T47D; read-out: IC50) [µM] | IC50 (SKOV3; read-out: IC50) [µM] | IC50 (HT29; read-out: IC50) [µM] | IC50 (LOX) [µM] | IC50 (T47D) [µM] | IC50 (SKOV3) [µM] | IC50 (HT29) [µM] | IC50 (SKVLB) [µM]
CC[C@@H]1CC2=C(C(=O)c3cc4ccccc4c(O)c3C2=O)[C@@H](O[C@H]2C[C@H](O)[C@H](O)[C@H](C)O2)O1 [BCH-1630] | 2.6 | 31 | 18 | 12 | 66 | 8.5 |  |  |  | 
CC[C@H]1Cc2c(O)c3c(c(O)c2[C@H](O[C@H]2C[C@H](N)[C@H](O)[C@H](C)O2)O1)C(=O)c1ccccc1C3=O [BCH-1633] | 1.92 | 0.47 | 0.735 | 0.245 | 0.0995 | 0.201 |  |  |  | 
CC(=O)C1CC2=C(C(=O)c3cc4ccccc4c(O)c3C2=O)C(O[C@H]2C[C@H](NC(=O)C(F)(F)F)[C@H](O)[C@H](C)O2)S1 (stereo partly shown) [BCH-1635] | 1.60 | 3.18 | 3.11 | 1.99 | 0.876 | 1 |  |  |  | 
CC(=O)C1CC2=C(C(=O)c3cc4ccccc4c(O)c3C2=O)C(OC[C@H]2COC(C)(C)O2)S1 (stereo partly shown) [BCH-1636] | 1.71 | 4.52 | 2.97 | 2.65 | 2.53 | 1.23 |  |  |  | 
CC(=O)C1CC2=C(C(=O)c3cc4ccccc4c(O)c3C2=O)C(O[C@H]2C[C@H](NC(=O)C(F)(F)F)[C@@H](O)[C@H](C)O2)O1 (stereo partly shown) [BCH-1637] | 1.68 | 3.82 |  | 2.28 | 0.691 | 2.07 | 5.24 |  |  | 
CC(F)(F)C1CC2=C(CO1)C(=O)c1cc3ccccc3c(O)c1C2=O (stereo not shown) [BCH-1638, 3-(1',1'-difluoroethyl)-6 and 11-hydroxy-1,2,3,4-tetrahydro-(2-oxygen)-naphthacene-5,12-dione] |  | > 100 | > 100 | > 100 | > 100 | > 100 |  |  |  | 
CC(F)(F)C1CC2=C(CO1)C(=O)c1c(cc3ccccc3c1O)C2=O (stereo not shown) [BCH-1639, 3-(1',1'-difluoroethyl)-6 and 11-hydroxy-1,2,3,4-tetrahydro-(2-oxygen)-naphthacene-5,12-dione] |  | > 100 | > 100 | > 100 | > 100 | > 100 |  |  |  | 
CC(=O)[C@@H]1CC2=C(C(=O)c3cc4ccccc4c(O)c3C2=O)[C@@H](O[C@H]2C[C@H](NC(=O)C(F)(F)F)[C@H](O)[C@H](C)O2)S1 [BCH-1641] | 1.63 | 2.74 | 2 | 1.68 | 0.871 | 1.35 |  |  |  | 
CC(=O)C1CC2=C(C(=O)c3cc4ccccc4c(O)c3C2=O)C(OC[C@H](O)CO)S1 (stereo partly shown) [BCH-1645] | 1.90 | 3.83 | 3.73 | 2.02 | 0.597 | 1.37 |  |  |  | 
C[C@@H]1O[C@@H](O[C@H]2OCCC3=C2C(=O)c2cc4ccccc4c(O)c2C3=O)C[C@H](NC(=O)C(F)(F)F)[C@@H]1O [BCH-1646] | 1.31 | 6.56 | 2.81 |  |  | 2.96 |  | 4.99 | 5.92 | 
C[C@@H]1O[C@@H](O[C@@H]2OCCC3=C2C(=O)c2cc4ccccc4c(O)c2C3=O)C[C@H](NC(=O)C(F)(F)F)[C@@H]1O [BCH-1647] | 1.67 | 6 | 0.871 | 3.59 | 2.5 | 3.24 |  |  |  | 
CCN(CC)C(=O)[C@H]1CC2=C(C(=O)c3cc4ccccc4c(O)c3C2=O)[C@H](O[C@H]2C[C@H](NC(=O)C(F)(F)F)[C@H](O)[C@H](C)O2)O1 [BCH-1653] | 1.85 |  | 7.09 | 3.22 | 0.885 | 3.92 |  |  |  | 5.97
CCN(CC)C(=O)[C@@H]1CC2=C(C(=O)c3cc4ccccc4c(O)c3C2=O)[C@@H](O[C@H]2C[C@H](NC(=O)C(F)(F)F)[C@H](O)[C@H](C)O2)O1 [BCH-1656] | 1.72 | 7.07 | 5.19 |  | 3.77 | 3.86 |  | 4.12 |  | 
CC(=O)C1CC2=C(C(=O)c3cc4ccccc4c(O)c3C2=O)C(OC[C@@H]2COC(C)(C)O2)S1 (stereo partly shown) [BCH-1660] | 0.88 | 2.02 | 4.97 | 2.29 | 6.28 | 2.81 |  |  |  | 
CC(=O)C1CC2=C(C(=O)c3cc4ccccc4c(O)c3C2=O)C(OC[C@@H]2COC(C)(C)O2)O1 (stereo partly shown) [BCH-1661] | 0.94 | 2.66 | 5.12 | 2.82 | 3.04 | 3.59 |  |  |  | 
